From the supplement of paper PMC8967900

Legend:
Assay in all cases: selective drug sensitivity score (sDSS, relative to normal bone marrow) (sDSS (score)); higher = more potent and effective on the cell line relative to normal bone marrow cells
Details in all cases: 72 h
NALL-1 = tested on: NALL-1
MOLT-16 = tested on: MOLT-16
ALL-PO = tested on: ALL-PO
KOPN-8 = tested on: KOPN-8
COG-LL-319h = tested on: COG-LL-319h
TMD5 = tested on: TMD5
MOLT-4 = tested on: MOLT-4
KASUMI-2 = tested on: KASUMI-2
TANOUE = tested on: TANOUE
697 = tested on: 697
SEM cells = tested on: SEM cells
KASUMI-9 = tested on: KASUMI-9
RCH-ACV = tested on: RCH-ACV
NALM-6 = tested on: NALM-6
SUP-B15 = tested on: SUP-B15
LC4-1 = tested on: LC4-1
PEER = tested on: PEER
CCRF-HSB2 = tested on: CCRF-HSB2
MHH-CALL-4 = tested on: MHH-CALL-4
KASUMI-10 = tested on: KASUMI-10
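Further: ALL cell lines in 384-well plates, five doses spanning 10,000-fold, each plate scaled between vehicle and 100 µmol/L benzalkonium chloride controls, sDSS an adapted area-under-curve metric.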

Structure (SMILES) | selective drug sensitivity score (NALL-1) | selective drug sensitivity score (MOLT-16) | selective drug sensitivity score (ALL-PO) | selective drug sensitivity score (KOPN-8) | selective drug sensitivity score (COG-LL-319h) | selective drug sensitivity score (TMD5) | selective drug sensitivity score (MOLT-4) | selective drug sensitivity score (KASUMI-2) | selective drug sensitivity score (TANOUE) | selective drug sensitivity score 697 | selective drug sensitivity score (SEM cells) | selective drug sensitivity score (KASUMI-9) | selective drug sensitivity score (RCH-ACV) | selective drug sensitivity score (NALM-6) | selective drug sensitivity score (SUP-B15) | selective drug sensitivity score (LC4-1) | selective drug sensitivity score (PEER) | selective drug sensitivity score (CCRF-HSB2) | selective drug sensitivity score (MHH-CALL-4) | selective drug sensitivity score (KASUMI-10)
Cn1nnc2c(C(N)=O)ncn2c1=O [Temozolomide] (top concentration 100000 nM) | -0.04 | 5.16 | -0.04 | -0.04 | -0.04 | -0.04 | 1.86 | -0.04 | -0.04 | 3.76 | 6.46 | 6.16 | 6.66 | 2.26 | -0.04 | -0.04 | -0.04 | 2.06 | -0.04 | -0.04
CC(C)C(=O)Nc1ccc([N+](=O)[O-])c(C(F)(F)F)c1 [Flutamide] (top concentration 10000 nM) | 8.04 | 0.34 | -0.56 | 4.24 | -0.56 | 6.64 | -0.46 | 0.34 | 0.04 | 1.94 | 2.44 | 1.64 | 0.14 | -0.46 | -0.56 | -0.46 | 0.94 | -0.46 | 1.24 | -0.56
C=CCN(/C=C1/C(=O)O[C@H](COC)[C@@]2(C)C1=C(O)C(=O)C1=C2[C@H](OC(C)=O)C[C@]2(C)C(=O)CC[C@@H]12)CC=C [Sonolisib] (top concentration 10000 nM) | -0.76 | -0.76 | 2.44 | -0.16 | 4.24 | -0.76 | -0.76 | -0.76 | -0.76 | 0.24 | -0.76 | 0.14 | 2.14 | -0.56 | -0.76 | -0.56 | -0.76 | -0.76 | -0.06 | -0.76
CCOCc1nc2c(N)nc3ccccc3c2n1CC(C)(C)O [Resiquimod] (top concentration 10000 nM) | -4.92 | -3.22 | -4.92 | -4.92 | 5.68 | -4.92 | -4.92 | -4.92 | -3.02 | -4.62 | -4.92 | -4.92 | -4.92 | -4.42 | -1.22 | -4.12 | -4.92 | -4.92 | -4.92 | -2.72
CCCN(CCC)C(=O)C1=Cc2ccc(-c3ccc(C(=O)N4CCCC4)cc3)cc2N=C(N)C1 [Motolimod] (top concentration 10000 nM) | -4.48 | -2.78 | -3.88 | 1.52 | -4.18 | -3.48 | -4.08 | -4.48 | -4.48 | -2.68 | -3.38 | 1.22 | -1.68 | -3.38 | -3.58 | -3.58 | -3.18 | -3.48 | -4.48 | -2.28
